As usually defined, the pIC50 is −log10 of the IC50, conventionally taken in molar units. High values mean a small IC50, low ones a large IC50.

pIC50: −log10 of the molar value.

The test system of this assay is P. falciparum 3D7 growth, pLDH absorbance. Put plainly: blood-stage malaria parasite growth potency – strain 3D7, dose response (AID 2305).
With `CN(C)CCNCc1cccc(-c2ccc3c(Nc4ccc(F)cc4Cl)ccnc3c2)c1`, the pIC50 is 6.09.
Under `CO/C(=C\C=C\c1cc2cc(Cl)c(Cl)cc2[nH]1)C(=O)NC1C[C@@H](C)N(C)[C@@H](C)C1` (stereo not given in full) stands 6.05; under `COc1ccc2nccc([C@@H](O)CN3CCC(NC(=O)C(c4cc5ccccc5s4)N4CCN(c5ccccc5OC)CC4)CC3)c2c1` (stereo not given in full), 6.80; under `CC(C)c1ccc(NC(=O)NCCCC2CCCN(CCCCCNC(=O)/C=C/c3ccc(Cl)c(Cl)c3)C2)cc1` (stereo not given), 6.02.
The compound `COc1ccc(S(=O)(=O)NCCC2CCN(CCCCCNC(=O)C=Cc3ccc(Cl)c(Cl)c3)CC2)cc1` had a pIC50 of 6.02.
Next, `COc1ccccc1C(=O)C1CCCN(C(=O)c2ccccc2C(F)(F)F)C1` (stereo not given): 6.22.
Under `NCC(=O)c1cc2c(cc1N)OCCO2` stands 5.87; under `O=C(Nc1ccc(Cl)cc1)c1cccc(S(=O)(=O)NC2CCN(CC3CCCCC3)C2)c1` (stereo not given), 6.04.
Turning to `COc1ccccc1C1CCN(C2CCC(NC(=O)/C=C/c3ccc(OC(F)(F)F)cc3)CC2)CC1` (stereo not given), the pIC50 is 5.87.
Next, `NC(=O)c1cc2nc(NC3CCC3)nc(Nc3cccc4[nH]ncc34)c2[nH]1`: 6.14; `CC(C)N1CCN(C(CN2CCN(CCCOc3ccc(-c4ccccc4)cc3)CC2)c2ccc(F)cc2)CC1` (stereo not given): 6.17; `Fc1ccc(Nc2ccnc3cc(-c4cccc(CN5CCCCC5)c4)ccc23)c(Cl)c1`: 7.52.
Under `COc1cc2c(Nc3ccc(NC(=O)c4ccccc4)cc3)ncnc2cc1OCCCN1CCOCC1` stands 6.19.
Under `CC(C)CN(c1nc(C(=O)NNC(=O)[C@H](CC2CC2)NC(=O)c2cc3cc(OCCN4CCCCC4)ccc3o2)cs1)C1CC1` stands 6.68; under `COc1cccc(-c2ccc3c(-c4cccc(S(C)(=O)=O)c4)cnc(N)c3c2)c1`, 6.06.
`CCc1c[nH]c2c(N3CCCC3=O)cc(C(=O)N[C@@H](Cc3ccccc3)[C@H](O)CNC(C)(C)c3cccc(C(F)(F)F)c3)cc12` had a pIC50 of 6.92.
Next, `Cc1cc(=O)c(-c2ccc(Oc3cccc(Cl)c3)cc2)c(C)[nH]1`: 6.22; `O=C(Nc1ccc(-c2ccc(-c3nc4ccccc4[nH]3)s2)cc1)Nc1ccc(F)c(F)c1F`: 6.72.
Under `Cc1ccc(-c2nc3cc(NC(=O)c4ccc([N+](=O)[O-])o4)ccc3o2)cc1Cl` stands 6.80.
The compound `CCOc1ccccc1CNc1nccc(NCc2ccc(Cl)cc2Cl)n1` gave a pIC50 of 5.96.
Under `Cc1ccc(C(=O)Nc2cc(S(=O)(=O)N3CCCC3)ccc2OCC(F)(F)F)cc1` stands 6.07.
Next, `Cn1c(NCc2cc(F)cc3c2OCOC3)nc2cc(Nc3ccnc(Nc4cccc(CS(C)(=O)=O)c4)n3)ccc21`: 6.82; `CN1CCN(Cc2ccc(-c3cccc(-c4nc5ccccc5[nH]4)c3)cc2)CC1`: 5.86.
In turn, `CC(=O)Nc1ccc(C(=O)Nc2ccc(-c3cccc(-c4nc5c(C)cccc5[nH]4)c3)cc2)cn1` had a pIC50 of 6.59.
Under `Cn1cncc1C(=O)Nc1cccc(-c2ccc(-c3nc4ccc(F)cc4[nH]3)cc2)c1` stands 6.14; under `Cc1[nH]c(C)c(-c2ccc(Oc3ccc(Cl)c(Cl)c3)cc2)c(=O)c1Br`, 6.52; under `O=C(NC(c1ccccc1)c1ccccc1)C(c1cc2ccccc2o1)N1CCN(C(c2ccccc2)c2ccccc2)CC1` (stereo not given), 6.17.
Consider `O=C(Nc1cccc(CN2CCN(C(=O)c3ccccc3)CC2)c1)c1ccco1`, for which the pIC50 was 6.05.
The compound `CCCC(=O)Nc1ccc(OCCN(Cc2ccccc2OC(F)(F)F)c2ccc(C(F)(F)F)c(C#N)c2)cc1` had a pIC50 of 6.10.
Consider `CCNc1cc(C(=O)N[C@@H](Cc2ccccc2)[C@H](O)CNCc2cccc(OC)c2)c(OC)c(N2CCCCS2(=O)=O)c1`, for which the negative logarithm of the IC50 (pIC50) is 6.16.
`Cc1nnc2c(NC(=O)NC3CCCC3)cc3cc(-c4ccc(CN5CCN(C)CC5)cc4)ccc3n12` gave a pIC50 of 5.99.
Next, `CCCCCCN1CCC(NCc2cccc(C(F)(F)F)c2)CC1`: 6.60.
The compound `COc1ccccc1CCNc1nc(C)cc(N[C@@H](Cc2ccccc2)C(=O)NCCOc2ccccc2)n1` had a pIC50 of 5.92.
`CCOc1ccc(C(=O)Nc2cc(Br)c3c(c2)CNCC3)cc1C(F)(F)F` had a pIC50 of 6.03.
The compound `Oc1ccc(-c2ccccc2)cc1CNC1CCCCC1` gave a pIC50 of 6.30.
Next, `CC(=O)Nc1ccc(CN2Cc3ccc(NC(=O)Nc4ccc(Oc5ccccc5)cc4)cc3C2)s1`: 6.04; `CCN1CCC(N(Cc2ccc(-c3ccc(C(F)(F)F)cc3)cc2)C(=O)Cn2c(CCc3cccc(F)c3F)cc(=O)c3ccc(OCc4ccccc4)cc32)CC1`: 6.43; `CC(C)=CCN1CCC(C(=O)Nc2ccc(-c3nc4ccccc4[nH]3)cc2)CC1`: 6.04.
`Clc1cc(Br)ccc1-c1ccc(CNCC2CCNCC2)o1` gave a pIC50 of 5.82.
`O=C(Nc1ccc(Cl)c(Cl)c1)N1CCC(NCc2cccc([N+](=O)[O-])c2)CC1` gave a pIC50 of 6.12.
`CS(=O)(=O)c1ccc(CNCc2cccc(-c3ccc(-c4nc5ccc(C(F)(F)F)cc5[nH]4)cc3)c2)cc1`: the pIC50 was 6.29.
Under `Cc1cc(NCCCCCCN)nc(Nc2ccc(Cl)cc2)n1` stands 6.35.
Consider `CCOC(=O)c1ccc(-c2c(C(F)(F)F)noc2-c2cc(CC)c(OC)cc2O)o1`, for which the pIC50 is 6.68.
`Brc1ccc(Nc2nc(NCC3CCCO3)c3ccccc3n2)cc1` (stereo not given) showed a pIC50 of 6.24.
Next, `CCOC(=O)c1ccc(NC(=O)N[C@H]2CCN(CCCCCNC(=O)/C=C/c3ccc(Cl)c(Cl)c3)C2)cc1`: 6.13; `CN1CCC(N(Cc2ccc(-c3ccc(C(F)(F)F)cc3)cc2)C(=O)Cn2cc(Cc3cnn(C)c3)c(=O)nc2SCc2cccc(F)c2F)CC1`: 6.03.
Regarding `Cc1cc(N[C@@H](Cc2ccccc2)C(=O)NC2CCCC2)nc(NCC2CCCCC2)n1`, the pIC50 was 5.93.
Next, `CSc1nc2nc(C)c(Cc3cccc(C(F)(F)F)c3)c(C)n2n1`: 6.72.
Under `CN(C)c1cccc(CCNCCc2c[nH]c3ccc(Cl)cc23)c1` stands 6.36.
Under `COc1cc(C=NNc2cc(C)nc3c(OC)cccc23)cc(OC)c1OC` stands 6.05; under `Cc1cccc2[nH]c(-c3ccc(-c4ccc(CN5CCCC(O)C5)cc4)cc3)nc12` (stereo not given), 6.07; under `COc1ccc(CNC(=O)c2cc3c(=O)n4ccccc4nc3n(CCc3ccccc3)c2=N)cc1`, 6.48.
`O=C(NC1CCCCC1)N(Cc1cccc(-c2ccc(CNCc3ccc4c(c3)OCO4)cc2)c1)C1CCN(Cc2ccccc2)CC1`: the pIC50 is 6.10.
Under `CCCCN1C(=O)[C@H]2CC(=O)CC(C3CCCCC3)[C@H]2C1=O` (stereo not given in full) stands 6.05; under `CC(=O)c1c(C)[nH]c(C(=O)Nc2ccc(-c3nc4ccc(C)cc4s3)cc2)c1C`, 6.08.
Next, `NC(N)=NC(=O)Nc1ccc(Cl)c(C(F)(F)F)c1`: 6.23.
As for `Cc1cc(C2CCN(CCCCNC(=O)c3ccc(-c4ccc(C(F)(F)F)cc4)cc3)CC2)c(C)cc1OCCO`, the negative-log IC50 (pIC50) is 6.06.
Next, `O=C1C(c2ccccc2)=C(Nc2cc(Cl)cc(Cl)c2)c2ccccc21`: 6.43; `COc1ccc2nccc(NN=Cc3ccccc3)c2c1`: 6.96.
Next, `COc1ccc(OCCn2cc(C(=O)c3ccco3)c3ccccc32)cc1`: 6.11.
For `CCCCCCn1c(Sc2ccc(C#N)c([N+](=O)[O-])c2)nnc1-c1cccc(Cl)c1`, the pIC50 is 6.21.
`Cc1c[nH]c2cc(/C=C/C(=O)NC3CCC(CCN4CCc5ccc(C#N)cc5CC4)CC3)ccc12` (stereo not given) had a pIC50 of 6.10.
Under `Cc1cc(Nc2cccc(C(F)(F)F)c2)nc(NCc2ccccc2)n1` stands 6.82; under `COc1cc(F)c2ncc(Cl)c([C@@H](O)CN3CCC(NCc4ccc5c(n4)NC(=O)CO5)CC3)c2c1`, 6.92.
Under `Cc1ccc2c(NN=Cc3cccc(Cl)c3)cc(C)nc2c1` stands 6.02.
The compound `CNCCNC(=O)C1Cc2c([nH]c3c(C)cccc23)C(c2ccc(Cl)c(Cl)c2)N1` (stereo not given) gave a pIC50 of 6.14.
With `COc1ccc(CC(=O)NC(CCCN2CCC(c3ccccc3)CC2)c2ccc(Cl)c(Cl)c2)cc1OC` (stereo not given), the negative-log IC50 (pIC50) was 5.98.
Next, `CCC(CO)NCC(O)Cn1c2ccc(Cl)cc2c2cc(Cl)ccc21` (stereo not given): 6.11; `Cc1c(CNCCCNc2nc3ccccc3[nH]2)[nH]c2cc(Cl)cc(Cl)c12`: 6.64; `Cn1nccc1C(=O)NCCNCc1ccc(-c2ccc(-c3nc4ccccc4[nH]3)s2)cc1`: 6.25.
Under `Cc1cccc(C)c1OC(=O)CSc1nnc(-c2ccccc2O)o1` stands 6.06.
Under `COc1cc(O)c2c(=O)c(OC)c(-c3cccc(Cl)c3OC3O[C@H](CO)[C@@H](O)[C@H](O)[C@H]3O)oc2c1OC` (stereo not given in full) stands 6.11.
Compound `O=C(Nc1cccc(CN2CCN(C(=O)c3cccc(F)c3)CC2)c1)c1cccs1` showed a pIC50 of 6.43.
Under `Cn1c(NC(=O)C2CCC(CNC(=O)c3ccc(O)c(-c4ccc(Cl)c(Cl)c4)c3)CC2)nc2ccccc21` (stereo not given) stands 6.19; under `Nc1nc(N)c2c(Oc3cc(Cl)c(Cl)c(Cl)c3)cccc2n1`, 6.10; under `CN(C)CCCNC(=O)c1ccccc1Sc1ccccc1C#N`, 5.94.
For `O=C(Nc1cccc(C(F)(F)F)c1)Nc1ccc2nonc2c1`, the pIC50 is 6.07.
Next, `CC(Cc1ccc(COc2ccc(CC(CO)NCCc3cccc(Cl)c3)cc2)cc1)NCCc1cccc(Cl)c1` (stereo not given): 6.09; `O=C(NC1CCCc2ccccc21)C1CCCN(C(=O)c2ccc(O)c(-c3ccc(Cl)c(Cl)c3)c2)C1` (stereo not given): 5.94; `Cc1cc(N)c2cc(NC(=O)c3cccc(C(=O)Nc4ccc5nc(C)cc(N)c5c4)c3)ccc2n1`: 6.59.
In turn, `C[C@H](NCCC1CCC(NC(=O)N[C@H](C)C(O)(c2ccccc2)c2ccccc2)CC1)c1cccc2ccccc12` (stereo not given in full) had a pIC50 of 5.96.
Next, `Cc1ccc(Nc2nc3cc(Nc4ccnc(Nc5cccc(CS(C)(=O)=O)c5)n4)ccc3o2)cc1`: 6.04.
Next, `O=C(NCCCCN1CCC(c2ccc3c(c2OCc2ccccn2)CCCC3)CC1)c1ccc(NC(=O)c2ccc(Cl)cc2)cc1`: 6.10; `COc1ccc(C)cc1NC(=O)CSc1nc2cccnc2n1C1CCCCC1`: 6.27; `CC(C)N1CCC(NC(=O)N2CCCN(c3ncnc4cc(-c5ccccc5)sc34)CC2)CC1`: 6.07.

The record behind these values is PubChem BioAssay AID2305 (GlaxoSmithKline (GSK), 2010).
